{
  "source": "patent US20230226070A1",
  "about": "“TREATMENT OF THROMBOSIS AND ASSOCIATED DISORDERS WITH AN ANTI-PLATELET AGENT” (THE HEART RESEARCH INSTITUTE LTD, priority 2020, published 2023)",
  "key": {"[1]": {"test_system": "occlusive thrombus in the mouse carotid artery", "assay": "carotid artery thrombosis model: occlusive thrombus formation induced by electrolytic injury, recanalisation classified from carotid blood flow", "type": "in vivo, C57BL/6 male mice", "details": "for thrombolysis, recanalisation and vessel reocclusion (in words): dual therapy: antiplatelet agent 2.5 mg/kg together with rtPA 10 mg/kg; for comparative anti-platelet efficacy in vivo, TGX221 versus AZD6482: each 2.5 mg/kg combined with rtPA 10 mg/kg; for lysis of 4.5 hours aged clots (in words): treatment 270 min after occlusion, triple therapy versus rtPA/argatroban dual therapy; for recanalisation of older (aged) clots (in words): triple therapy: rtPA + argatroban + antiplatelet agent (2.5 mg/kg, 2x bolus), treatment 15, 120 or 270 min after occlusion"}, "[2]": {"test_system": "ischaemic stroke after carotid artery thrombotic occlusion and contralateral stenosis", "type": "in vivo"}, "tail bleeding": {"test_system": "tail bleeding", "assay": "3 mm tail lop (tail transection) bleeding assay", "method": "Bleeding was assessed using a 3 mm tail lop assay. Drug treatments (bolus) were administered 10 min before the start of tail bleeding. When a 30 min infusion was used, the tail bleeding experiment began as soon as the infusion finished. Following drug administration, a 3 mm long section of the tail tip was removed using a scalpel blade and the tail tip immersed in warmed saline. Bleeding was monitored until cessation and the time recorded. […] If the tail did re-bleed, length of time of rebleeding was also recorded. The experiment was ended when bleeding had ceased for at least 2 min, or at 30 min post-tail tip removal. Haemoglobin was quantified using 2 methods [(i, ii) using Abs 575 nm; (iii) using a colorimetric haemoglobin assay, as per the manufacturer's instructions (Sigma Aldrich, Haemoglobin Assay Kit MAK115)]. The treatment dosing regimens were as follows: rtPA (10 mg/kg: 1 mg/kg bolus, 9 mg/kg infusion over 30 min); Integrilin (1-10 mg/kg, bolus every 15 minutes); TGX221 (2.5 mg/kg; single bolus 15 minutes prior to lop); Arg—argatroban (80 ug/kg bolus; 40 ug/kg/min infusion 60). […] Data are presented as mean±SEM.\nIn addition, 15 minutes following commencement of treatment administration, tail transection (3 mm) was performed, and the tail tip immersed in warm (37° C.) saline to allow for blood collection from the tail (as described under “Methods”). Flow of blood was assessed over 30 minutes and any periods of blood flow cessation and rebleeding noted. Blood monitoring and collection was ceased at 30 minutes after lop, for all mice. Haemoglobin content was assessed in the collected sample using a colorimetric haemoglobin assay, as per the manufacturer's instructions (Sigma Aldrich, Haemoglobin Assay Kit MAK115). Data was analysed using a one-way ANOVA relative to Vehicle. […] The bar graph depicts mean±SD, where ***P<0.0005, ^nsP>0.05."}, "mouse blood/platelets": {"test_system": "mouse blood/platelets", "assay": "ADP-induced aggregation in PPACK-anticoagulated PRP (Integrilin dose-response)", "type": "cell-based", "text": "Data are presented as mean±SEM."}},
  "note": "“Also recorded” adds a separate entry of the source. Where a SMILES comes first, the peptide text is derived from it. Bridges are numbered along the chain shown (N, C = ends). [ ]: non-standard residue; d: D form. hArg = N=C(N)NCCCC[C@H](N)C(=O)O; Mpa = O=C(O)CCS",
  "data": [
    {"compound": "Cc1cc(C(C)Nc2ccccc2)c2nc(N3CCOCC3)cc(=O)n2c1", "note": "(racemic) [TGX221, (±)-7-methyl-2-morpholin-4-yl-9-(1-phenylaminoethyl)-pyrido[1,2-a]pyrimidin-4-one]", "values": [
      {"measurement": "thrombolysis, recanalisation and vessel reocclusion (in words)", "setting": "[1]; 15 min after occlusion", "result": "improves thrombolysis and vessel reocclusion over and above that achieved with rtPA alone; also recorded: effectively enhancing recanalisation"},
      {"measurement": "comparative anti-platelet efficacy in vivo, TGX221 versus AZD6482", "setting": "[1]", "result": "equipotent"},
      {"measurement": "lysis of 4.5 hours aged clots (in words)", "setting": "[1]", "result": "benefit"},
      {"measurement": "recanalisation and reocclusion (in words)", "setting": "[1]; triple therapy: TGX221 2.5 mg/kg + argatroban + rtPA 10 mg/kg, 15 min after occlusion", "result": "improving recanalisation as well as reducing reocclusion"},
      {"measurement": "recanalisation of older (aged) clots (in words)", "setting": "[1]", "result": "improving recanalization of older clots"},
      {"measurement": "vessel (carotid) recanalisation (in words)", "setting": "[2]; triple therapy: TGX221 2.5 mg/kg + argatroban + rtPA 10 mg/kg, 5 min after stroke onset", "result": "improved blood flow (recanalisation)"},
      {"measurement": "cerebral perfusion (in words)", "setting": "[2]; triple therapy: TGX221 + argatroban + rtPA", "result": "improved cerebral reperfusion"},
      {"measurement": "cerebral infarct (TTC staining, in words)", "setting": "[2]; triple therapy: TGX221 + argatroban + rtPA, 24 hours", "result": "reduced cerebral infarct"},
      {"measurement": "tail bleeding (in words)", "setting": "tail bleeding; administered alone (TGX221 2.5 mg/kg; Integrilin 3 mg/kg and above)", "result": "does not Increase Tail Bleeding"},
      {"measurement": "tail bleeding (in words)", "setting": "tail bleeding; in combination with rt-PA (10 mg/kg; for TGX221 also up to 20 mg/kg)", "result": "promising bleeding profile"}
    ]},
    {"compound": "Cc1cc([C@@H](C)Nc2ccccc2C(=O)O)c2nc(N3CCOCC3)cc(=O)n2c1", "note": "[AZD6482, (−)-2-({1R-[7-methyl-2-(morpholin-4-yl)-4-oxo-pyrido[1,2-a]pyrimidin-9-yl]ethyl}amino)benzoic acid]", "values": [
      {"measurement": "thrombolysis, recanalisation and vessel reocclusion (in words)", "setting": "[1]; 15 min after occlusion", "result": "improves thrombolysis and vessel reocclusion over and above that achieved with rtPA alone; also recorded: effectively enhancing recanalisation"},
      {"measurement": "comparative anti-platelet efficacy in vivo, TGX221 versus AZD6482", "setting": "[1]", "result": "equipotent"},
      {"measurement": "lysis of 4.5 hours aged clots (in words)", "setting": "[1]", "result": "benefit"},
      {"measurement": "recanalisation of older (aged) clots (in words)", "setting": "[1]", "result": "improving recanalization of older clots"}
    ]},
    {"compound": "N=C(N)NCCCC[C@@H]1NC(=O)CCSSC[C@@H](C(N)=O)NC(=O)[C@@H]2CCCN2C(=O)[C@H](Cc2c[nH]c3ccccc23)NC(=O)[C@H](CC(=O)O)NC(=O)CNC1=O", "note": "[Integrilin, Eptifibatide, reference compound] ([Mpa][hArg]GDWPC-NH2; disulfide 1-7)", "values": [
      {"measurement": "inhibition of ADP-induced aggregation", "setting": "mouse blood/platelets; 3.0 mg/kg ('Stroke' dose)", "result": "approximately 60%"},
      {"measurement": "inhibition of ADP-induced aggregation", "setting": "mouse blood/platelets; 4.0 mg/kg ('AMI' dose)", "result": "~80", "unit": "%"},
      {"measurement": "stable recanalisation of the occluded carotid artery (in words)", "setting": "[2]; integrilin 4 mg/kg every 15 min with rtPA 10 mg/kg and argatroban", "result": "enhances stable recanalisation"},
      {"measurement": "tail bleeding / safety (in words)", "setting": "tail bleeding; triple therapy with rt-PA 10 mg/kg and argatroban", "result": "accompanied by an increase in bleeding"}
    ]},
    {"compound": "rtPA: recombinant tissue plasminogen activator, thrombolytic agent, purchased from Boehringer Ingelheim", "values": [
      {"measurement": "recanalisation category / re-thrombosis (in words)", "setting": "[1]; rt-PA monotherapy 10 mg/kg, 15 min after occlusion, 60 min monitoring", "result": "induces transient recanalisation"},
      {"measurement": "clot lysis and recanalisation of the carotid, share of vessels", "setting": "[1]; rtPA 10 mg/kg i.v. alone, 15 min after occlusion, blood flow monitored 60 min", "result": "approximately 25%"}
    ]}
  ]
}
